Results on two compounds are retold here after patent US7833698B2, “Method for determining the response to cancer therapy” (Ventana Medical Systems, Inc., priority 2000, dated 2010).

Holding throughout (format): cell-based, human
Assay [1] has as its system MCF7 cells. In words: SA-β-Gal staining of drug-treated MCF7 cells. The note with it: treated 2-3 days with 50 nM doxorubicin or Taxol, stained 10-11 days after release from the drug. As to the method: Cells were washed in PBS, fixed for 3-5 minutes at room temperature in 2% formaldehyde and 0.2% glutaraldehyde (or in 3% formaldehyde alone), washed, and incubated at 37° C. in fresh senescence-associated β-Gal (SA-β-Gal) staining solution (1 mg/ml 5-bromo-4-chloro-3-indolyl β-D-galactoside (X-Gal), 20 mg/ml dimethylformamide; 40 mM citric acid/sodium phosphate, pH 6.0; 5 mM potassium ferrocyanide; 5 mM potassium ferricyanide; 150 mM NaCl; 2 mM MgCl2. Staining was evident following 2-4 hours of incubation and maximal staining was reached after in 12-16 hours. To detect lysosomal β-Gal, the staining solution was prepared with citric acid/sodium phosphate at pH 4.0 (Baselga et al., 1999, Proceedings of AACR NCI EORTC International Conference, Abstract 98).
Red and green filters are suitable for practice of the invention. For SA-β-Gal, a green filter (500 nm) is used to determine the total cytoplasmic area stained with red eosin and compared with the blue area stained for SA-β-Gal (600 nm) as determined using a red filter. […] It is recognized that there are various other staining or optical enhancement methods and filtering methods which can be used to optically enhance one particular area or feature over another cell feature (such as Fast green and eosin).
Cellular changes are induced by treatment with moderate doses of doxorubicin and Taxol in breast tumor-derived human cell lines. […]

Assay [2] has as its system MCF7 cells. In words: Flow cytometric analysis of drug-treated MCF7 cells. The settings on record: 50 nM, 2-3 days. As to the method: Cellular changes are induced by treatment with moderate doses of doxorubicin and Taxol in breast tumor-derived human cell lines. MCF7 cells were treated for 2-3 days with 50 nM doxorubicin or Taxol (doses that induce growth inhibition and cellular death as measured by flow cytometry; as described by, e.g., Dolbeare et al., 1983, Proc. Natl. Acad. Sci. U.S.A. 80:5573-77) and then were stained for SA-β-Gal expression 10-11 days after release from the drug.
In general terms: Flow cytometry measures light scatter and fluorescence of single cells or particles in a stream.

Assay [3] deals with MCF7 cells. In words: p53 and p21CIPI/WAF1 immunostaining with image analysis in MCF7 cells. The note with it: MCF7 treated for 3 days with doxorubicin. An excerpt: The expression of proteins associated with senescence or apoptosis are quantitated by image analysis using a suitable primary antibody (such as Ab-2 for p53, or Ab-1 for WAF1, HSP60, or caspase 3), secondary antibody (such as rabbit anti-mouse IgG), and tertiary ABC complex.
Tertiary ABC complexes are visualized by treating the sections with diaminobenizidine (DAB) stain under appropriate conditions. In a second step, the tissue is counterstained with another optical enhancement factor, preferably ethyl green. The resulting preparation has green nuclei with varying degrees of brown diaminobenzidine (DAB) precipitate localized to the nuclei (and indicating the level of expression of p53, p21, p16, WAF1, HSP60, or caspase-3 protein). […] Spectral studies have shown that the ethyl green stain offers good spectral separation from the DAB precipitate of the immunoperoxidase technique such that different features of the image can be readily separated by filtering at two different wavelengths. […]
MCF7 cells were treated for 3 days with doxorubicin and then stained for p53 and p21^CIPI/WAF1 expression. Cells were cultured, stained, and analyzed as described above for SA-β-Gal using appropriate antibodies.

Turning to `COc1cccc2c1C(=O)c1c(O)c3c(c(O)c1C2=O)C[C@@](O)(C(=O)CO)C[C@@H]3O[C@H]1C[C@H](N)[C@H](O)[C@H](C)O1` [Doxorubicin, doxorubicin], in the assay on MCF7 cells [1], the “Percentage of Cells Expressing SA-β-Gal” value is reported as 24%. Further, the “Cellular outcome in flow cytometry histogram / SA-β-Gal+ morphology” value in the assay on MCF7 cells [2] was “resulted in senescence and blocks at G1, G2, and G2M”. In addition, in the assay on MCF7 cells [3], the “Cells stained for p21CIPI/WAF1 (% Cells)” value was 50.81 ± 6 % Cells and the “Cells stained for p53 (% Cells)” value is listed as 23.93 ± 7 % Cells.

As for `CC(=O)O[C@H]1C(=O)[C@@]2(C)[C@H]([C@H](OC(=O)c3ccccc3)[C@]3(O)C[C@H](OC(=O)[C@H](O)[C@@H](NC(=O)c4ccccc4)c4ccccc4)C(C)=C1C3(C)C)[C@]1(OC(C)=O)CO[C@@H]1C[C@@H]2O` [Taxol], the “Percentage of Cells Expressing SA-β-Gal” value in the assay on MCF7 cells [1] is on record as 13%. For the same compound, the “Cellular outcome in flow cytometry histogram / SA-β-Gal+ morphology” value with MCF7 cells [2] is given as “apoptosis is evident by the hypodiploid peak”.
